A word on the MIC: it is the lowest concentration found to suppress growth. High values mean a need for much substance, low ones inhibition by little substance.

This passage reports MIC and Activity results from ChEMBL document CHEMBL1144792, “Beta-carboline alkaloids from a Korean tunicate Eudistoma sp” (2008).

The subject of assay [1] is Staphylococcus epidermidis. Briefly: Antibacterial activity against Staphylococcus epidermidis ATCC 12228 after 24 hrs by 2-fold microtiter broth dilution method. It is filed as functional. To be noted: ATCC 12228, 24 h. (Dilution methods test growth across graded concentrations, often in twofold steps.)
Another assay has as its system Bacillus subtilis. Briefly: Antibacterial activity against Bacillus subtilis ATCC 6633 after 24 hrs by 2-fold microtiter broth dilution method. To be noted: ATCC 6633, 24 h. It is filed as functional.
The next assay concerns Micrococcus luteus. Briefly: Antibacterial activity against Micrococcus luteus ATCC 9341 after 24 hrs by 2-fold microtiter broth dilution method. The class given is functional, organism-based.
The test system of a further assay is Salmonella typhimurium. Briefly: Antibacterial activity against Salmonella Typhimurium ATCC 14028 after 24 hrs by 2-fold microtiter broth dilution method. To be noted: Salmonella enterica subsp. enterica serovar Typhimurium. It is filed as functional, organism-based.
The subject of a further assay is Escherichia coli. The assay can be described thus: Antibacterial activity against Escherichia coli ATCC 11775 after 24 hrs by 2-fold microtiter broth dilution method. It is filed as functional, organism-based.
For the next assay, the system named is Klebsiella pneumoniae. Briefly: Antibacterial activity against Klebsiella pneumoniae ATCC 4352 after 24 hrs by 2-fold microtiter broth dilution method. The class given is functional, organism-based.
In a further assay the test system is Staphylococcus aureus. Briefly: Antibacterial activity against Staphylococcus aureus ATCC 6538 after 24 hrs by 2-fold microtiter broth dilution method. The class given is functional, organism-based.

The structures appear in SMILES notation. ≈ marks a conversion by molar mass, not a printed value. Calls of active or inactive are those of the source. The rule behind the calls is not given here.

In assay [1], `O=C(c1ccc(O)cc1)c1nccc2c1[nH]c1ccccc12` [EUDISTOMIN Y1] had an MIC of 50 µg/mL (≈ 173 µM).

Consider `O=C(c1ccc(O)c(Br)c1)c1nccc2c1[nH]c1ccc(Br)cc12` [EUDISTOMIN Y4], for which the MIC in the assay with Bacillus subtilis came to 200 µg/mL (≈ 448 µM).

With `O=C(c1cc(Br)c(O)c(Br)c1)c1nccc2c1[nH]c1ccc(Br)cc12` [EUDISTOMIN Y6], the result in the assay with Micrococcus luteus, in the assay with Salmonella typhimurium, in the assay with Escherichia coli, with Klebsiella pneumoniae and in the assay with Staphylococcus aureus was inactive. In addition, the MIC in assay [1] amounted to 12.5 µg/mL (≈ 23.8 µM); against Bacillus subtilis, 25 µg/mL (≈ 47.6 µM).
